Laboratory results taken from patent US20090220621A1, “Pharmaceutical compositions of a non-enteric coated proton pump inhibitor with a carbonate salt and bicarbonate salt combination” (priority 2000, published 2009).
Values joined by “and” are separate entries in the source; they are usually repeats but may differ in a detail not shown here. Equal entries are not always repeated.

Tests used:
Type in all cases: physicochemical
[1] = Titration of simulated gastric fluid with acid neutralizer solution (gastric acid neutralizing capacity); details: 50 mL SGF
Description: To determine and compare the gastric acid neutralizing capacity of sodium bicarbonate solution to carbicarb solution, the following experiment was performed.
(§1) Aqueous solutions to be tested were made up from starting materials sodium carbonate, (anhydrous, available from Mallinckrodt) and sodium bicarbonate (available from Mallinckrodt). An 8.4% sodium bicarbonate solution and an 8.4% carbicarb solution (containing equimolar amounts of sodium bicarbonate and sodium carbonate) were tested as follows.
50 mL simulated gastric fluid (SGF, prepared according to the procedure described in Example 1) was pipetted into an Erlenmeyer flask. Four drops of methyl red, then four drops of phenolphthalein were then added to the flask. The pH of solution was monitored with a pH electrode. The solution to be tested was added to a 5-mL buret. The gastric media in the flask was then titrated with the test solution to an endpoint within 0.2 pH units of pH 6.5 (as indicated by the color change and pH reading). Then, titration was resumed, to an endpoint within 0.2 pH units of pH 8.0 (as indicated by the color change and pH reading).

[2] = Gas and CO2 generated by neutralization of simulated gastric fluid (Orsat apparatus, standard CO2 assay)
From the text: To quantify the gas produced by the neutralization of simulated gastric fluid ([…]) by carbicarb and by sodium bicarbonate in vitro, a standard CO2 assay technique was utilized (see USP 24-NF 19 Beta, The United States Pharmacopeia 2000, p. 306)
as §1
The specimen gas was generated by reacting either 450 mL simulated gastric fluid (SGF) with 50 mL of the carbicarb solution; or by reacting 45 ml of simulated gastric fluid with 5 ml of sodium bicarbonate solution in a 500 mL Erlenmeyer flask.
To make Simulated Gastric Fluid (SGF) 1 g sodium chloride was transferred to a 500-mL volumetric flask. After adding 1.6 g pepsin, 25 mL 2 N hydrochloric acid was added and swirled to mix. The resultant solution could then be diluted to the appropriate volume with water.
The amount of gas generated in a twenty-minute time period was measured in an Orsat Glass Vapor Absorption Apparatus, by the standard assay technique. Two tests were run for each solution. The volume of CO2 generated was calculated from the difference in the initial volume of gas produced (ml) and the final volume of gas remaining (ml).

[3] = Stability of lansoprazole in simulated gastric fluid with and without carbicarb (chromatographic assay); details: for % labeled amount of lansoprazole remaining: Sample in water; for % of the drug degraded: at 60 minutes in SGF
Description: Lansoprazole degrades in acid and is stable in base. This study was performed to determine 1) how quickly lansoprazole degrades in simulated gastric fluid (SGF); and 2) whether a high pH-buffering agent (carbicarb which is an equimolar mixture of sodium carbonate and sodium bicarbonate) could be used to retard the degradation of lansoprazole in SGF. All the experiments were conducted at room temperature (22° C.±2° C.).
The PPI test sample included lansoprazole (30 mg); mannitol (60 mg), meglumine (30 mg) and sodium hydroxide (3 mg).
Then 5.0 mL 2 N sodium hydroxide solution was added to the 0-minutes beaker with mixing. To each of the 5 remaining beakers, 10.0 mL of 8.4% carbicarb solution was added and stirred to mix. At the appropriate time interval (corresponding to the individual beaker numbers), 5.0 mL 2 N sodium hydroxide solution was added to stop the reaction. A portion of the resulting solution was diluted with pH 10 diluent. 10 μL of the resulting solution was then injected into the chromatographic system for assay.
Granular formulations of lansoprazole, including carbicarb were also made and tested. The stability of the granular formulations was tested according to the procedure of Example 3. The granular formulations of lansoprazole for this example were prepared as follows.
The coherent mass containing lansoprazole, carbicarb, lactose and sucrose solution was prepared as described above, in Example 3. This coherent mass was passed through a 20-mesh screen and the resulting granules were dried at 50° C. for 12 hours. Granules containing 30-mg lansoprazole were transferred to an amber color container along with and an equal weight of flavor granules. 10 ml of water ((HPLC grade, Fisher Scientific, Pittsburgh, Pa.) was added to the container with gentle shaking to reconstitute the suspension. The resulting suspension of lansoprazole was tested for stability in simulated gastric fluid as described earlier in Experiment 3.

[4] = 450 mL SGF and 50 mL test solution, ten times the 45 mL/5 mL values

| Volume of Acid Neutralizer Solution Required ([1]; pH after adding neutralizer 7.0) [mL] | Volume of Acid Neutralizer Solution Required ([1]; pH after adding neutralizer 8.0) [mL] | Volume of Acid Neutralizer Solution Required ([1]; pH of simulated gastric fluid after adding neutralizer 1.2) [mL] | Volume of CO2 ([2]; 45 mL SGF and 5 mL test solution, initial minus residual gas volume) | Initial Gas Volume [2, 4] | Volume of CO2 [2, 4] | % labeled amount of lansoprazole remaining ([3]; time in SGF 30 minutes) [%] | % labeled amount of lansoprazole remaining ([3]; time in SGF 45 minutes) [%] | % labeled amount of lansoprazole remaining ([3]; time in SGF 60 minutes) [%] | % of the drug degraded ([3]; constituted with carbicarb solution) [%] | % of the drug degraded ([3]; reconstituted with water) [%] | SMILES |
| --- | --- | --- | --- | --- | --- | --- | --- | --- | --- | --- | --- |
| 5.00 | 6.20 | 0 | 2.9 mL and 5.3 mL | 930.0 mL and 820.0 mL | 29.0 mL and 53.0 mL |  |  |  |  |  | O=C([O-])O.[Na+] [8.4% sodium bicarbonate solution, sodium bicarbonate] |
|  |  |  |  |  |  | 4.1 | 2.7 | 2.0 | 3.5 | 98 | Cc1c(OCC(F)(F)F)ccnc1C[S+]([O-])c1nc2ccccc2[nH]1 (centres unmarked) [lansoprazole] |
